# ChEMBL document CHEMBL1151288, “Dichlorinated pulvinic acid derivative from a Malaysian Scleroderma sp” (J Nat Prod, 2005)
# Assays:
# Bacillus subtilis = test: Antibacterial activity against Bacillus subtilis at 40 ug; assay type: functional; conditions: read-out: IZ
# P388 = test: Cytotoxicity against mouse P388 cells; assay type: functional, cell-based
SMILES,zone of inhibition at 40 µg/disc (Bacillus subtilis) [mm],IC50 (P388) [µM]
COC(=O)/C(=C1/OC(=O)C(c2ccc(OC)cc2)=C1O)c1ccc(OC)c(Cl)c1,7,
COC(=O)/C(=C1/OC(O)=C(c2ccc(OC)cc2)C1=O)c1ccc(OC)cc1,8,
COC(=O)/C(=C1/OC(=O)C(c2ccc(OC)cc2)=C1O)c1cc(Cl)c(OC)c(Cl)c1,4,20.6
